From patent publication US20060115815A1 (priority 2002, published 2006)

System: wild-type HIV-1 strain IIIB
Assay: microbe, parasite or virus in culture
Type: cell-based
Conditions: read-out: EC50

Row | SMILES | EC50
1 | CCOC(=O)C(CC)NP(=O)(COc1ccc(C[C@H](NC(=O)O[C@H]2CO[C@H]3OCC[C@H]32)[C@H](O)CN(CC(C)C)S(=O)(=O)c2ccc(OC)cc2)cc1)NC(CC)C(=O)OCC (stereo partly shown) [drawing 655 R1=Aba-Et R2=Aba-Et] | < 50 nM
2 | CCCCOC(=O)C(Cc1ccccc1)NP(=O)(COc1ccc(CC(NC(=O)OC2COC3OCCC23)C(O)CN(CC(C)C)S(=O)(=O)c2ccc(OC)cc2)cc1)NC(Cc1ccccc1)C(=O)OCCCC (stereo not shown) [drawing 655 R1=Phe-Bu R2=Phe-Bu] | < 50 nM
3 | CCOC(=O)C(Cc1ccccc1)NP(=O)(COc1ccc(CC(NC(=O)OC2COC3OCCC23)C(O)CN(CC(C)C)S(=O)(=O)c2ccc(OC)cc2)cc1)NC(Cc1ccccc1)C(=O)OCC (stereo not shown) [drawing 655 R1=Phe-Et R2=Phe-Et] | < 50 nM
4 | CCOC(=O)COP(=O)(COc1ccc(C[C@H](NC(=O)O[C@H]2CO[C@H]3OCC[C@H]32)[C@H](O)CN(CC(C)C)S(=O)(=O)c2ccc(OC)cc2)cc1)OCC(=O)OCC [drawing 656 R1=Glc-Et R2=Glc-Et] | 500 to 5000 nM
5 | CCOC(=O)C(C)NP(=O)(COc1ccc(C[C@H](NC(=O)O[C@H]2CO[C@H]3OCC[C@H]32)[C@H](O)CN(CC(C)C)S(=O)(=O)c2ccc(OC)cc2)cc1)OCc1ccccc1 (stereo partly shown) [drawing 657 R1=OBn R2=Ala-Et] | < 50 nM
6 | CCCCOC(=O)C(C)NP(=O)(O)COc1ccc(C[C@H](NC(=O)O[C@H]2CO[C@H]3OCC[C@H]32)[C@H](O)CN(CC(C)C)S(=O)(=O)c2ccc(OC)cc2)cc1 (stereo partly shown) [drawing 657 R1=OH R2=Ala-Bu] | > 5000 nM
7 | COc1ccc(S(=O)(=O)N(CC(C)C)C[C@@H](O)[C@H](Cc2ccc(OCP(=O)(O)NC(C)C(=O)O)cc2)NC(=O)O[C@H]2CO[C@H]3OCC[C@H]32)cc1 (stereo partly shown) [drawing 657 R1=OH R2=Ala-OH] | > 5000 nM
8 | CCCCOC(=O)CNP(=O)(COc1ccc(C[C@H](NC(=O)O[C@H]2CO[C@H]3OCC[C@H]32)[C@H](O)CN(CC(C)C)S(=O)(=O)c2ccc(OC)cc2)cc1)Oc1ccccc1 (stereo partly shown) [drawing 657 R1=OPh R2=Gly-Ru] | 50 to 500 nM
9 | CCOC(=O)C(C)OP(=O)(COc1ccc(CC(NC(=O)OC2COC3OCCC23)C(O)CN(CC(C)C)S(=O)(=O)c2ccc(OC)cc2)cc1)OCC(F)(F)F (stereo not shown) [drawing 658 R1=OCH2CF3 R2=Lac-Et] | 50 to 500 nM
10 | CCOC(=O)C(C)OP(=O)(COc1ccc(CC(NC(=O)OC2COC3OCCC23)C(O)CN(CC(C)C)S(=O)(=O)c2ccc(OC)cc2)cc1)OCC (stereo not shown) [drawing 658 R1=OEt R2=Lac-Et] | 50 to 500 nM
11 | CCOC(=O)COP(=O)(COc1ccc(CC(NC(=O)OC2COC3OCCC23)C(O)CN(CC(C)C)S(=O)(=O)c2ccc(OC)cc2)cc1)Oc1ccccc1 (stereo not shown) [drawing 658 R1=OPh R2=Glc-Et] | < 50 nM
12 | COc1ccc(S(=O)(=O)N(CC(C)C)C[C@@H](O)[C@H](Cc2ccc(OCP(=O)(Oc3ccccc3)OC(C)C(=O)OCCN3CCOCC3)cc2)NC(=O)O[C@H]2CO[C@H]3OCC[C@H]32)cc1 (stereo partly shown) [drawing 658 R1=OPh R2=Lac-EtMor] | > 5000 nM
13 | COC(=O)C(C)OP(=O)(COc1ccc(C[C@H](NC(=O)O[C@H]2CO[C@H]3OCC[C@H]32)[C@H](O)CN(CC(C)C)S(=O)(=O)c2ccc(OC)cc2)cc1)Oc1ccccc1 (stereo partly shown) [drawing 658 R1=OPh R2=Lac-Me] | 50 to 500 nM
14 | COc1ccc(S(=O)(=O)N(CC(C)C)C[C@@H](O)[C@H](Cc2ccc(OCP(=O)(Oc3ccccc3)OC(C)C(=O)OCCCN3CCOCC3)cc2)NC(=O)O[C@H]2CO[C@H]3OCC[C@H]32)cc1 (stereo partly shown) [drawing 658 R1=OPh R2=Lac-PrMor] | > 5000 nM
15 | CCOC(=O)C(CC)OP(=O)(COc1ccc(CC(NC(=O)OC2COC3OCCC23)C(O)CN(CC(C)C)S(=O)(=O)c2ccc(OC)cc2)cc1)Oc1ccccc1 [drawing 659 R1=OPh R2=(R)Hba-Et] | < 50 nM
16 | CCOC(=O)C(CC)OP(=O)(COc1ccc(CC(NC(=O)OC2COC3OCCC23)C(O)CN(CC(C)C)S(=O)(=O)c2ccc(OC)cc2)cc1)Oc1ccccc1 [drawing 659 R1=OPh R2=(S)Hba-Et] | < 50 nM
